Target: récepteurs des benzodiazépines
Assay: Benzodiazepine receptor affinity: [3H]flunitrazepam binding, modified method of Squires and Braestrup
Design: species or system rats
Settings: concentration inhibiting by 50 % the specific binding of 0,6 nanomoles (3H) flunitrazépam; rat forebrain membrane preparations; read-out: CI50 (the source's name)
Text: L'affinité des composés pour les récepteurs des benzodiazépines a été évaluée en utilisant un radioligand/^3H/flunitra- zépam et la méthode de Squires et Braestrup (Nature, 1977, 266,732) modifiée.
Les valeurs ci-dessus sont les concentrations nanomolaires du produit testé qui inhibent dans une proportion de 50 % la liaison spécifique de 0,6 nanomoles (^3H) flunitrazépam tant de préparations de membranes de cerveaux antérieurs de rats (CI50) nanomoles.

| Compound | IC50 |
| --- | --- |
| CCc1ccc2c(c1)c(OC)cc1nc(C(OC(C)=O)c3ccccc3)cn12 (stereo not shown) [Exemple 1] | 5000 nM |
| CCc1ccc2c(c1)c(OC)cc1nc(C(=O)c3ccccc3)c(Br)n12 [Exemple 2, (1-bromo 7-éthyl 5-méthoxyimidazo/1,2-a/quinoléin-2-yl)phénylméthanone] | 3200 nM |
| CCc1ccc2c(c1)c(OC)cc1nc(C(=O)c3ccccc3)c(Cl)n12 [Exemple 3, (1-chloro 7-éthyl 5-méthoxyimidazo/1,2-a/quinoléin-2-yl)phénylméthanone] | 975 nM |
| CCc1ccc2c(c1)c(O)cc1nc(C(=O)c3ccccc3)cn12 [Exemple 4, 2-benzoyl 7-éthylimidazo/1,2-a/quinoléin-501] | 430 nM |
| CCc1ccc2c(c1)c(OC)cc1nc(C(C)(O)c3ccccc3)cn12 (stereo not shown) [Exemple 5, 1-(7-éthyl 5-méthoxyimidazo/1,2-a/quinoléin-2-yl) 1-phényléthanol] | 8000 nM |
| CCc1ccc2c(c1)c(OC(C)=O)cc1nc(C(=O)c3ccccc3)cn12 [Exemple 6, Acétatede 2-benzoyl 7-éthylimidazo/1,2-a/quinoléin-2-vle] | 395 nM |
| C=C(c1ccccc1)c1cn2c(cc(OC)c3cc(CC)ccc32)n1 [Exemple 7, Chlorhydratede 7-éthyl 5-méthoxy 2-(1-phénylvinyl) imidazo/1,2-a/quinoléine] | 120 nM |
| CCc1ccc2c(c1)c(OC)c(C)c1nc(C(=O)c3ccccc3)cn12 [Exemple 8, (7-éthyl 5-méthoxy 4-méthylimidazo/1,2-a/quinoléin-2-yl)phénylméthanone] | 7 nM |
| CCc1ccc2c(c1)c(C)cc1nc(C(=O)c3ccccc3)cn12 [Exemple 9] | 250 nM |
| CCc1ccc2c(c1)c(OC)c(CC)c1nc(C(=O)c3ccccc3)cn12 [Exemple 10, (4,7-diéthyl 5-méthoxyimidazo/1,2-a/quinoléin-2-yl) phénylméthanone] | 135 nM |

Reference: patent publication EP0107988A2, “Imidazo (1,2-a)quinolines, their salts, their preparation, their use as medicaments and compositions containing them” (ROUSSEL-UCLAF, priority 1982, dated 1984)
